Values of other authors in patent publication US20020141964A1, “Composition for arresting the flow of blood and method” (priority 2001, published 2002).

Test system: blood flowing from an open wound
Settings: shown in the earlier U.S. patent of the co-inventors

In the case of potassium ferrate, the “accelerated clotting of blood flowing from an open wound” value is given as “effectively accomplishes the accelerated clotting of blood”.
